Source: article PMC5561212, “In Vitro Micropatterned Human Pluripotent Stem Cell Test (µP-hPST) for Morphometric-Based Teratogen Screening” (Scientific Reports, 2017)
Values after ≈ are worked out from the molar mass of the structure shown. “Also recorded” adds a separate entry of the source. Where two headings read alike, the source gives them in different places.

Key:
[1] = cited from earlier work
[2] = test system: human embryonic cell line H9; assay: Cytotoxicity assay (MTS), embryonic cytotoxicity; format: cell-based; settings: H9 cells, 3 days, 25% inhibitory concentration
Protocol: (§1) A set of 30 compounds of known teratogenicity was selected to establish and validate the µP-hPST (Table 1). The compounds include equal number of non-teratogens and teratogens, and differ in chemical property and therapeutic usage. Before tested in the µP-hPSC colonies, the cytotoxicity profile of each compound was acquired. Two cell lines, hPSC line H9 and adult human dermal fibroblast line aHDF, were tested to represent embryonic cytotoxicity and general cytotoxicity of the compound respectively (Supplementary Figs S1, S2). The IC25 values, which were the 25% inhibitory concentrations, were calculated as the highest non-cytotoxic concentrations of the compound (Table 2, Fig. 1).
(§2) Human embryonic cell line H9 (WiCell Research Institute, Inc) and adult human dermal fibroblast (aHDF, Lonza) were cultured as previously described. Briefly, H9 cells were cultured in tissue culture plates coated with Matrigel^TM (354277, BD Biosciences) in mTeSR^TM1 medium (05850, StemCell^TM Technologies). Dispase (07923, StemCell^TM Technologies) treatment and mechanical scraping were applied during normal subculture. The aHDF cells was cultured in DMEM medium (10569-010, Gibco), supplemented with 10% FBS (SV30160.03, Thermo Scientific Hyclone) and 1% Pen-Strep (09367-34, Nacalai Tesque). Cells were subcultured every 5–6 days using 0.25% Trypsion-EDTA (25200-114, Gibco) to detach the cells.
(§3) The adverse effect of test compounds on cell proliferation and viability was detected using CellTiter 96® AQueous One Solution Cell Proliferation Assay (MTS, G3580, Promega). 10,000 H9 cells or 500 aHDF cells were seeded in 96-well tissue culture plates. For H9 cells, Matrigel^TM was coated before seeding. For each compound, 8 concentrations from serial 5-fold dilutions were tested besides the vehicle controls. Cells were cultured for 3 days with medium half change every day before cell viability was measured. Each drug was tested in three independent runs and its IC25 values (inhibitory concentrations which can cause 25% of reduction in cell number) were acquired by logistic regression using OriginPro 9.

[3] = cited from earlier work; for In vivo teratogenicity: Table 1, known teratogenicity; for In vivo teratogenicity (in words): Supplementary Tables S2, S3
hPSC = test system: hPSC; set-up: method as in PMID 24123775; settings: cited from earlier work
[4] = test system: adult human dermal fibroblasts (aHDF); assay: Cytotoxicity assay (MTS), general cytotoxicity; format: cell-based; settings: aHDF cells, 3 days, 25% inhibitory concentration
Protocol: as §1, §2, §3

[5] = test system: µP-hPSC colonies (H9) under mesoendoderm induction; assay: µP-hPST: mesoendoderm pattern disruption in µP-hPSC colonies and two-step teratogen classification; settings: for Teratogenicity in µP-hPST / Teratogenicity in µP-hPST (in words): two-step classification rule; for Mesoendoderm pattern disruption seen in T fluorescent images: 3 days of compound exposure, in words
[6] = test system: human pluripotent stem cells; set-up: method as in PMID 24154490; settings: cited from earlier work
[7] = human plasma, ref U.S. FDA website, EMA website or published journals (Supplementary Table S1)

Compound: CC(=O)Nc1ccc(O)cc1 [Acetaminophen]
- Cmax [1, 7]: 24000 ng/mL
- IC25H9 [2]: 171 µg/mL (≈ 1130 µM)
- In vivo teratogenicity [3]: NON
- Teratogenicity in other in vitro assays (hPSC): NON[6]
- IC25aHDF [4]: 40 µg/mL (≈ 265 µM)

Compound: Nc1nc2c(ncn2COCCO)c(=O)[nH]1 [Acyclovir]
- Cmax [1, 7]: 5650 ng/mL
- IC25H9 [2]: 267 µg/mL (≈ 1190 µM)
- IC25aHDF [4]: 285 µg/mL (≈ 1270 µM)

Compound: CC1(C)S[C@@H]2[C@H](NC(=O)[C@H](N)c3ccc(O)cc3)C(=O)N2[C@H]1C(=O)O [Amoxicillin]
- Cmax [1, 7]: 14400 ng/mL
- IC25H9 [2]: >1000 µg/mL
- In vivo teratogenicity (in words) [3]: Non-teratogen
- In vivo teratogenicity [3]: NON
- Teratogenicity in other in vitro assays (hPSC): NON[6]
- IC25aHDF [4]: >1000 µg/mL
- Teratogenicity in µP-hPST [5]: NON

Compound: O=C1O[C@H]([C@@H](O)CO)C(O)=C1O [Ascorbic acid]
- Cmax [1, 7]: 156000 ng/mL
- IC25H9 [2]: 105 µg/mL (≈ 596 µM)
- IC25aHDF [4]: 63 µg/mL (≈ 358 µM)
- Teratogenicity in µP-hPST [5]: NON

Compound: COc1ccccc1Oc1c(NS(=O)(=O)c2ccc(C(C)(C)C)cc2)nc(-c2ncccn2)nc1OCCO [Bosentan]
- Cmax [1, 7]: 8170 ng/mL
- IC25H9 [2]: 43.8 µg/mL (≈ 79.4 µM)
- In vivo teratogenicity (in words) [3]: Teratogen
- In vivo teratogenicity [3]: TER
- Classification in the Targeted Biomarker Assay (in words) (hPSC): misclassified
- Teratogenicity in other in vitro assays (hPSC): NON[6]
- IC25aHDF [4]: 19.9 µg/mL (≈ 36.1 µM)
- Teratogenicity in µP-hPST [5]: TER
- Teratogenicity in µP-hPST (in words) [5]: correctly classify

Compound: CS(=O)(=O)OCCCCOS(C)(=O)=O [Busulfan]
- Cmax [1, 7]: 1220 ng/mL
- IC25H9 [2]: 0.5 µg/mL (≈ 2.03 µM)
- In vivo teratogenicity (in words) [3]: Teratogen
- In vivo teratogenicity [3]: TER
- Teratogenicity in other in vitro assays (hPSC): TER[6]
- IC25aHDF [4]: 19.2 µg/mL (≈ 78 µM)
- Mesoendoderm pattern disruption seen in T fluorescent images [5]: much smaller and concentrated mesoendoderm patterns were observed
- Teratogenicity in µP-hPST [5]: TER

Compound: Cn1c(=O)c2c(ncn2C)n(C)c1=O [Caffeine]
- Cmax [1, 7]: 10000 ng/mL
- IC25H9 [2]: 85.4 µg/mL (≈ 440 µM)
- IC25aHDF [4]: 129 µg/mL (≈ 664 µM)

Compound: NC(=O)N1c2ccccc2C=Cc2ccccc21 [Carbamazepine]
- Cmax [1, 7]: 11000 ng/mL
- IC25H9 [2]: 21 µg/mL (≈ 88.9 µM)
- In vivo teratogenicity (in words) [3]: Teratogen
- In vivo teratogenicity [3]: TER
- Defects caused in newborns [3]: neural tube defects, cardiovascular and urinary tract anomalies, and cleft palate
- Teratogenicity in other in vitro assays (hPSC): TER[6]
- IC25aHDF [4]: 28 µg/mL (≈ 119 µM)
- Mesoendoderm pattern disruption seen in T fluorescent images [5]: decrease both cell differentiation and migration
- Teratogenicity in µP-hPST [5]: TER
- Teratogenicity in µP-hPST (in words) [5]: detect the teratogenic effects

Compound: CC/C(=C(/CC)c1ccc(O)cc1)c1ccc(O)cc1 [Diethylstilbestrol]
- Cmax [1, 7]: 5.6 ng/mL
- IC25H9 [2]: 8.8 µg/mL (≈ 32.8 µM)
- In vivo teratogenicity (in words) [3]: Teratogen
- In vivo teratogenicity [3]: TER
- IC25aHDF [4]: 6.1 µg/mL (≈ 22.7 µM)
- Teratogenicity in other in vitro assays [6]: TER[7]
- Mesoendoderm pattern disruption seen in T fluorescent images [5]: promote cell migration
- Teratogenicity in µP-hPST [5]: NON
- Teratogenicity in µP-hPST (in words) [5]: misclassified as a non-teratogen

Compound: CN(C)CCOC(c1ccccc1)c1ccccc1 [Diphenhydramine]
- IC25H9 [2]: 2.4 µg/mL (≈ 9.4 µM)
- IC25aHDF [4]: 31.4 µg/mL (≈ 123 µM)
- Teratogenicity in µP-hPST [5]: NON

Compound: O=C1NC(=O)C(c2ccccc2)(c2ccccc2)N1 [Diphenylhydantoin]
- Cmax [1, 7]: 20000 ng/mL
- IC25H9 [2]: 56 µg/mL (≈ 222 µM)
- In vivo teratogenicity (in words) [3]: Teratogen
- In vivo teratogenicity [3]: TER
- Anomalies known to be induced [3]: orofacial, limb, cardiovascular and neurobehavioral anomalies
- Classification in the Targeted Biomarker Assay (in words) (hPSC): misclassified
- Teratogenicity in other in vitro assays (hPSC): NON[6]
- IC25aHDF [4]: 140 µg/mL (≈ 555 µM)
- Mesoendoderm pattern disruption seen in T fluorescent images [5]: slow down or prevent mesoendoderm cell migration
- Teratogenicity in µP-hPST [5]: TER
- Teratogenicity in µP-hPST (in words) [5]: correctly classify; also recorded: detect the teratogenic effects

Compound: CN(C)CCOC(C)(c1ccccc1)c1ccccn1 (stereo not shown) [Doxylamine]
- Cmax [1, 7]: 120 ng/mL
- IC25H9 [2]: 87 µg/mL (≈ 322 µM)
- IC25aHDF [4]: 45 µg/mL (≈ 166 µM)
- Teratogenicity in µP-hPST [5]: NON

Compound: Nc1nc2ncc(CNc3ccc(C(=O)N[C@@H](CCC(=O)O)C(=O)O)cc3)nc2c(=O)[nH]1 [Folic acid]
- Cmax [1, 7]: 270 ng/mL
- IC25H9 [2]: 888 µg/mL (≈ 2010 µM)
- IC25aHDF [4]: 894 µg/mL (≈ 2030 µM)
- Teratogenicity in µP-hPST [5]: NON

Compound: COc1cc2ncnc(Nc3ccc(F)c(Cl)c3)c2cc1OCCCN1CCOCC1 [Gefitinib]
- Cmax [1, 7]: 930 ng/mL
- IC25H9 [2]: 4.6 µg/mL (≈ 10.3 µM)
- IC25aHDF [4]: 1.66 µg/mL (≈ 3.71 µM)
- Teratogenicity in µP-hPST [5]: TER

Compound: Cc1ccc(NC(=O)c2ccc(CN3CCN(C)CC3)cc2)cc1Nc1nccc(-c2cccnc2)n1 [Imatinib]
- Cmax [1, 7]: 1560 ng/mL
- IC25H9 [2]: 19.5 µg/mL (≈ 39.5 µM)
- IC25aHDF [4]: 2.7 µg/mL (≈ 5.47 µM)

Compound: NNC(=O)c1ccncc1 [Isoniazid]
- Cmax [1, 7]: 3090 ng/mL
- IC25H9 [2]: 370 µg/mL (≈ 2700 µM)
- In vivo teratogenicity [3]: NON
- Teratogenicity in other in vitro assays (hPSC): NON[6]
- IC25aHDF [4]: 488 µg/mL (≈ 3560 µM)
- Teratogenicity in µP-hPST [5]: NON

Compound: CCOC(=O)N1CCC(=C2c3ccc(Cl)cc3CCc3cccnc32)CC1 [Loratadine]
- IC25H9 [2]: 24 µg/mL (≈ 62.7 µM)
- In vivo teratogenicity [3]: NON
- Teratogenicity in other in vitro assays (hPSC): NON[6]
- IC25aHDF [4]: 3.2 µg/mL (≈ 8.36 µM)

Compound: CC[C@H](C)C(=O)O[C@H]1C[C@@H](C)C=C2C=C[C@H](C)[C@H](CC[C@@H]3C[C@@H](O)CC(=O)O3)[C@H]21 [Lovastatin]
- Cmax [1, 7]: 10 ng/mL
- In vivo teratogenicity (in words) [3]: Teratogen
- In vivo teratogenicity [3]: TER
- Classification in the Targeted Biomarker Assay (in words) (hPSC): misclassified
- Teratogenicity in other in vitro assays (hPSC): NON[6]
- IC25aHDF [4]: 0.68 µg/mL (≈ 1.68 µM)
- Mesoendoderm pattern disruption seen in T fluorescent images [5]: promote cell migration
- Teratogenicity in µP-hPST [5]: TER
- Teratogenicity in µP-hPST (in words) [5]: correctly classify

Compound: Cn1cc[nH]c1=S [Methimazole]
- IC25H9 [2]: 252 µg/mL (≈ 2210 µM)
- In vivo teratogenicity (in words) [3]: Teratogen
- In vivo teratogenicity [3]: TER
- IC25aHDF [4]: >1000 µg/mL
- Mesoendoderm pattern disruption seen in T fluorescent images [5]: promote mesoendoderm differentiation while decrease collective cell migration
- Teratogenicity in µP-hPST [5]: TER

Compound: CCN(CC)CCNC(=O)c1cc(Cl)c(N)cc1OC [Metoclopramide]
- Cmax [1, 7]: 40 ng/mL
- IC25H9 [2]: 162 µg/mL (≈ 540 µM)
- In vivo teratogenicity (in words) [3]: Non-teratogen
- In vivo teratogenicity [3]: NON
- Teratogenicity in other in vitro assays (hPSC): NON[6]
- IC25aHDF [4]: 154 µg/mL (≈ 514 µM)
- Teratogenicity in µP-hPST [5]: NON

Compound: CC1(C)S[C@@H]2[C@H](NC(=O)Cc3ccccc3)C(=O)N2[C@H]1C(=O)O [Penicillin G]
- Cmax ([1]; compounds tested previously): 400000 ng/mL
- Teratogenicity in µP-hPST (in words) [5]: Non-teratogen

Compound: N[C@@H](CC(=O)N1CCn2c(nnc2C(F)(F)F)C1)Cc1cc(F)c(F)cc1F [Sitagliptin]
- Cmax [1, 7]: 390 ng/mL
- IC25H9 [2]: 359 µg/mL (≈ 881 µM)
- In vivo teratogenicity [3]: NON
- Teratogenicity in other in vitro assays (hPSC): NON[6]
- IC25aHDF [4]: 77.1 µg/mL (≈ 189 µM)
- Teratogenicity in µP-hPST [5]: NON

Compound: CCN(CC)CCNC(=O)c1c(C)[nH]c(/C=C2\C(=O)Nc3ccc(F)cc32)c1C [Sunitinib]
- Cmax [1, 7]: 30 ng/mL
- IC25H9 [2]: 0.89 µg/mL (≈ 2.23 µM)
- In vivo teratogenicity (in words) [3]: Teratogen
- In vivo teratogenicity [3]: TER
- Teratogenicity in other in vitro assays [6]: TER[7]
- Mesoendoderm pattern disruption seen in T fluorescent images [5]: promote mesoendoderm differentiation while decrease collective cell migration
- Teratogenicity in µP-hPST [5]: TER

Compound: Cc1ncc(C[n+]2csc(CCO)c2C)c(N)n1 [Thiamine]
- Cmax [1, 7]: 110 ng/mL
- IC25H9 [2]: >1000 µg/mL
- In vivo teratogenicity (in words) [3]: Non-teratogen
- In vivo teratogenicity [3]: NON
- Teratogenicity in other in vitro assays (hPSC): NON[6]
- IC25aHDF [4]: >1000 µg/mL
- Mesoendoderm pattern disruption seen in T fluorescent images [5]: slow down or prevent mesoendoderm cell migration
- Teratogenicity in µP-hPST [5]: NON
